Experimental data published in ChEMBL document CHEMBL5532708, “Tetrahydroxanthene-1,3(2H)-diones and Oxidized Hexadiene Derivatives from Uvaria leptopoda and Their Biological Activities” (J Nat Prod, 2024).
In brackets after ≈: the same amount, converted by molar mass.

Legend:
[1] = Cytotoxicity against human Lu1 cells assessed as inhibition of cell growth incubated for 72 hrs by SRB assay; type: functional, cell-based; details: Lu1, 72 h
[2] = tested on: SNU1; test: Cytotoxicity against human SNU1 cells assessed as reduction in cell viability incubated for 24 hrs by MTT assay; type: functional, cell-based; details: SNU1, 24 h
[3] = tested on: RAW264.7; test: Antiinflammatory activity in mouse RAW264.7 cells assessed as inhibition of LPS-induced NO production at 15 uM incubated for 24 hrs by Griess reagent based analysis relative to control; type: functional; parameters: scale not given: the % may be the effect or the level left
[4] = Cytotoxicity against mouse RAW264.7 cells assessed as cell viability at 15 uM incubated for 24 hrs by MTT assay relative to control; type: toxicity, cell-based; details: read-out: Activity
[5] = tested on: Plasmodium falciparum; test: Antiplasmodial activity against multidrug resistant Plasmodium falciparum K1 assessed as reduction in parasite growth by [3H]-hypoxanthine incorporation assay; type: functional, organism-based
[6] = tested on: KB; test: Cytotoxicity against human KB cells by SRB assay; type: functional, cell-based
[7] = tested on: RAW264.7; test: Antiinflammatory activity in mouse RAW264.7 cells assessed as inhibition of LPS-induced NO production incubated for 24 hrs by Griess reagent based analysis; type: functional, cell-based; details: RAW264.7, 24 h

In the case of `CC(C)[C@@H](C)/C=C/[C@@H](C)[C@H]1CCC2=C3C=CC4=CC(=O)CC[C@]4(C)[C@H]3CC[C@@]21C`, the IC50 [1] is reported as 10.2 µg/mL (≈ 26 µM).

Molecule `COc1cc(OC)c(C(=O)/C=C/c2ccccc2)c(O)c1OC` has an IC50 [2] of 11 µM, an Activity [3] of -11% and a viability at 24 h, 15 µM [4] of over 90%.

In the case of `COc1cc(OC)c([C@@H]2Oc3c(OC)c(OC)cc(OC)c3[C@@H](/C=C/c3ccccc3)[C@H]2C(=O)c2ccccc2)c(O)c1OC`, the IC50 [5] is reported as 3.02 µg/mL (≈ 4.93 µM).

`COc1ccc2c(c1)C[C@]1(OC)C(=O)/C(=C(/O)[C@H]3[C@H](c4ccccc4)[C@H](/C(O)=C4/C(=O)C[C@@]5(OC)Oc6ccc(OC)cc6C[C@@]5(OC)C4=O)[C@H]3c3ccccc3)C(=O)C[C@]1(OC)O2` gave an IC50 [2] of 18 µM, an Activity [3] of 6.5% and a viability at 24 h, 15 µM [4] of over 90%.

Molecule `CC(=O)OC[C@@](O)(COC(=O)c1ccccc1)[C@@H](O)/C=C\COC(=O)c1ccccc1` has an IC50 [2] of 82 µM, an Activity [3] of 14% and a viability at 24 h, 15 µM [4] of over 90%.

`COc1ccc2c(c1)C[C@H]1[C@@H](OC(=O)c3ccccc3)[C@H](OC(C)=O)C(COC(=O)c3ccccc3)=C[C@H]1O2` showed an IC50 [2] of 130 µM, an Activity [3] of 15% and a viability at 24 h, 15 µM [4] of over 90%.

For `COc1cc2cc(-c3ccc(O)cc3)ccc2cc1O`, the IC50 [6] was 5.05 µM.

Molecule `CC(=O)OC[C@@]1(COC(=O)c2ccccc2)O[C@H]1/C=C\COC(=O)c1ccccc1` has an IC50 [2] of 37 µM, an Activity [3] of 12% and a viability at 24 h, 15 µM [4] of over 90%.

With `O=C1c2cc(O)ccc2-c2c3c(cc4ccnc1c24)OCO3` the IC50 [1] was 9.22 µg/mL (≈ 31.7 µM).

Molecule `COc1ccc2c(c1)C[C@]1(OC)C(=O)/C(=C(O)\C=C\c3ccccc3)C(=O)C[C@]1(OC)O2` (racemic) has an IC50 [2] of 34 µM, an Activity [3] of 73% and an IC50 [7] of 6.7 µM. It also gave a viability at 24 h, 15 µM [4] of over 90%.

Work on `O=C(O)Cc1ccccc1Nc1c(Cl)cccc1Cl` [DICLOFENAC SODIUM] yielded an IC50 [7] of 331 µM.
